{
  "source": "ChEMBL document CHEMBL4229332",
  "about": "“Novel multi-target azinesulfonamides of cyclic amine derivatives as potential antipsychotics with pro-social and pro-cognitive effects” (Eur J Med Chem, 2018)",
  "key": {"[1]": {"biological_target": "T1, 5-hydroxytryptamine receptor 2A (Homo sapiens, UniProt P28223)", "T1 sequence (P28223 whole entry)": "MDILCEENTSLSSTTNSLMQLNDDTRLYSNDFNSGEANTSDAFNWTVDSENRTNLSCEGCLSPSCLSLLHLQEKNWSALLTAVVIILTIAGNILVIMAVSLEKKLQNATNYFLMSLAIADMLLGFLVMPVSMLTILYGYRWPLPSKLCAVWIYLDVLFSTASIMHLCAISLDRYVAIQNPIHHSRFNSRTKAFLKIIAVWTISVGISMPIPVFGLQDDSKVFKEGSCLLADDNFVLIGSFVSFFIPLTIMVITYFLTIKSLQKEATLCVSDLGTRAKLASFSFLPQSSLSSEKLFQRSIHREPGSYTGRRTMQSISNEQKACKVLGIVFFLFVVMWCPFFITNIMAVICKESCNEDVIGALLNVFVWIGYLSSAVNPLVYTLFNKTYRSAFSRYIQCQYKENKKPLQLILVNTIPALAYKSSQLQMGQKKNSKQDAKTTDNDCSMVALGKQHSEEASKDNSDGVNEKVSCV", "test": "biochemical", "assay_type": "cell-based, CHO-K1"}, "[2]": {"biological_target": "T2, 5-hydroxytryptamine receptor 1A (Homo sapiens, UniProt P08908)", "T2 sequence (P08908 whole entry)": "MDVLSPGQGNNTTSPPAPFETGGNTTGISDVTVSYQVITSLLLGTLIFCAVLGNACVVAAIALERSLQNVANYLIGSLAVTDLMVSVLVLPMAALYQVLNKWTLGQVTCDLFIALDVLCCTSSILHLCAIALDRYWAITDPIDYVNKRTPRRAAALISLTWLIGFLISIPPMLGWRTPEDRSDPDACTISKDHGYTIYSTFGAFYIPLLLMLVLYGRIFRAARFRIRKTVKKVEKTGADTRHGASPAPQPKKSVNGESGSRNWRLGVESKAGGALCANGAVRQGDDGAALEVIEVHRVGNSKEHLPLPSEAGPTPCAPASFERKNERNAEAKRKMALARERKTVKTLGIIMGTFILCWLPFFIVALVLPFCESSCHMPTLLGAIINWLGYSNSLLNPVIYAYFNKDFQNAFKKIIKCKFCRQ", "test": "Partial agonist activity at human 5-HT1AR expressed in CHO-K1 cells assessed as increase in cAMP accumulation by chemiluminescence-based assay", "assay_type": "functional, cell-based"}, "[3]": {"biological_target": "T3, 5-hydroxytryptamine receptor 1A (Homo sapiens) (UniProt P08908)", "T3 sequence (whole entry)": "T2 sequence (P08908 whole entry)", "test": "Partial agonist activity at human 5-HT1AR expressed in CHO-K1 cells assessed as increase in cAMP accumulation at 10^-6 M by chemiluminescence-based assay relative to serotonin", "assay_type": "functional, cell-based"}, "[4]": {"biological_target": "T1, 5-hydroxytryptamine receptor 2A", "test": "Antagonist activity at human 5-HT2AR expressed in HEK293 cells assessed as inhibition of serotonin-induced calcium flux at 10^-6 M after 30 mins by HTRF method", "assay_type": "functional, cell-based"}, "[5]": {"biological_target": "T1, 5-hydroxytryptamine receptor 2A", "test": "Antagonist activity at human 5-HT2AR expressed in HEK293 cells assessed as inhibition of serotonin-induced calcium flux after 30 mins by HTRF method", "assay_type": "functional, cell-based"}, "[6]": {"biological_target": "5-hydroxytryptamine receptor 6 (Homo sapiens, UniProt P50406)", "sequence (P50406 whole entry)": "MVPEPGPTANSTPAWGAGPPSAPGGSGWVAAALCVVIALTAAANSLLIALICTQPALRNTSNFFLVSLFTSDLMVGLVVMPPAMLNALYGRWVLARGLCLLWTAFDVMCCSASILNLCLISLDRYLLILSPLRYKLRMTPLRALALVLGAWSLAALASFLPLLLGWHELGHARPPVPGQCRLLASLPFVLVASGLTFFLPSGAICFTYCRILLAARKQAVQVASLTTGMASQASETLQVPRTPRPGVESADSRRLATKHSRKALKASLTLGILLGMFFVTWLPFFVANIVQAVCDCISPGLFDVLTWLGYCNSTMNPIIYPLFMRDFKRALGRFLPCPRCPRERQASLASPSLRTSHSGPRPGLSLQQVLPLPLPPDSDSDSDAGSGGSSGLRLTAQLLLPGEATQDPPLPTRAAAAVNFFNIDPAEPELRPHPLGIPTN", "test": "Antagonist activity at human 5-HT6R expressed in CHO-K1 cells assessed as inhibition of serotonin-induced cAMP accumulation at 10^-6 M after 30 mins by chemiluminescence-based assay", "assay_type": "functional, cell-based"}, "[7]": {"biological_target": "T4, 5-hydroxytryptamine receptor 7 (Homo sapiens, UniProt P34969)", "T4 sequence (P34969 whole entry)": "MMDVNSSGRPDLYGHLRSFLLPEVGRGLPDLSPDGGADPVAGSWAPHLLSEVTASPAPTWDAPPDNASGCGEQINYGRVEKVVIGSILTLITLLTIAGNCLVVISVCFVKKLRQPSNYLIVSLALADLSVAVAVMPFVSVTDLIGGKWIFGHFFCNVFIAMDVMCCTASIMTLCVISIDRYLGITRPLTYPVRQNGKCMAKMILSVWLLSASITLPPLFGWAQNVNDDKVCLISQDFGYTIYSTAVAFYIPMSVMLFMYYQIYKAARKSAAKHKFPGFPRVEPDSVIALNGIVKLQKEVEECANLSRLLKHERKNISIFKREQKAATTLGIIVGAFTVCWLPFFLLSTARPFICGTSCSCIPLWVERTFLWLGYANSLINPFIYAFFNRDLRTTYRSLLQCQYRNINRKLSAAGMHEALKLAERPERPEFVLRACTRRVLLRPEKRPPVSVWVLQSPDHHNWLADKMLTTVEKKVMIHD", "test": "Antagonist activity at human 5-HT7R expressed in CHO-K1 cells assessed as inhibition of serotonin-induced cAMP accumulation after 30 mins by chemiluminescence-based assay", "assay_type": "functional, cell-based"}, "[8]": {"biological_target": "T4, 5-hydroxytryptamine receptor 7", "test": "Antagonist activity at human 5-HT7R expressed in CHO-K1 cells assessed as inhibition of serotonin-induced cAMP accumulation at 10^-6 M after 30 mins by chemiluminescence-based assay", "assay_type": "functional, cell-based"}, "[9]": {"biological_target": "D(2) dopamine receptor (Homo sapiens) (UniProt P14416)", "sequence (P14416 whole entry)": "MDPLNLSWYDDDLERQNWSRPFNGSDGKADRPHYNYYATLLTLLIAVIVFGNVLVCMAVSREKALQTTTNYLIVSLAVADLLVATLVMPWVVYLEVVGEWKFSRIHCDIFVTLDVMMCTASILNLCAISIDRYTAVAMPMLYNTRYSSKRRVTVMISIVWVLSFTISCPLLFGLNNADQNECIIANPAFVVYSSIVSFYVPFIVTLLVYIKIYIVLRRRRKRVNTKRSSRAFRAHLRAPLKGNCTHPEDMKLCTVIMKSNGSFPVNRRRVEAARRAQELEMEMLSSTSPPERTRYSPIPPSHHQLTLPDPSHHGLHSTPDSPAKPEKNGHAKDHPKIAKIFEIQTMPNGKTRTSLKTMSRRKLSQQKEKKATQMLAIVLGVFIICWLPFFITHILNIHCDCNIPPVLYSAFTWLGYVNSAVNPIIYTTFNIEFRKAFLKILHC", "test": "Antagonist activity at human D2LR expressed in CHO-K1 cells assessed as inhibition of dopamine-induced calcium flux by fluorimetric method", "assay_type": "functional, cell-based"}, "[10]": {"biological_target": "D(2) dopamine receptor (Homo sapiens) (UniProt P14416)", "test": "Antagonist activity at human D2LR expressed in CHO-K1 cells assessed as inhibition of dopamine-induced calcium flux at 10^-6 M by fluorimetric method", "assay_type": "functional, cell-based"}, "[11]": {"biological_target": "D(3) dopamine receptor (Homo sapiens) (UniProt P35462)", "sequence (P35462 whole entry)": "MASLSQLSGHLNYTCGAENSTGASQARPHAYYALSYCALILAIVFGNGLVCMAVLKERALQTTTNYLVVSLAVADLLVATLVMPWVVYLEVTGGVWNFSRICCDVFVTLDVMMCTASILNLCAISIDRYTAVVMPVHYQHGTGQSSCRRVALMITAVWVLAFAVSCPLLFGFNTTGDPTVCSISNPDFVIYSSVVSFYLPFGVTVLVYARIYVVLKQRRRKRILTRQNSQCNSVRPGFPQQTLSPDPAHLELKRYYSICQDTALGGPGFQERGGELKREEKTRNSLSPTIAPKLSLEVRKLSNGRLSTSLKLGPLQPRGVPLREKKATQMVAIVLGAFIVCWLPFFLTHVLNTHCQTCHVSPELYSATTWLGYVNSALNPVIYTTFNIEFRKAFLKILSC", "test": "Antagonist activity at human D3R expressed in CHO-K1 cells assessed as inhibition of dopamine induced cAMP accumulation at 10^-6 M after 30 mins by HTRF method", "assay_type": "functional, cell-based"}, "[12]": {"test": "Drug level in Wistar rat plasma at 3 mg/kg, ip measured after 15 mins by LC-MS/MS analysis", "assay_type": "ADME, organism-based"}, "[13]": {"test": "Drug level in Wistar rat plasma at 3 mg/kg, ip measured after 30 mins by LC-MS/MS analysis", "assay_type": "ADME, organism-based"}, "[14]": {"test": "Drug level in Wistar rat plasma at 3 mg/kg, ip measured after 60 mins by LC-MS/MS analysis", "assay_type": "ADME, organism-based"}, "[15]": {"test": "Drug level in Wistar rat brain at 3 mg/kg, ip measured after 15 mins by LC-MS/MS analysis", "assay_type": "ADME, organism-based", "settings": "read-out: Drug uptake"}, "[16]": {"test": "Drug level in Wistar rat brain at 3 mg/kg, ip measured after 30 mins by LC-MS/MS analysis", "assay_type": "ADME, organism-based", "settings": "read-out: Drug uptake"}, "[17]": {"test": "Drug level in Wistar rat brain at 3 mg/kg, ip measured after 60 mins by LC-MS/MS analysis", "assay_type": "ADME, organism-based", "settings": "read-out: Drug uptake"}, "[18]": {"test": "Ratio of drug level in brain to plasma in Wistar rat at 3 mg/kg, ip measured after 15 mins by LC-MS/MS analysis", "assay_type": "ADME, organism-based", "settings": "read-out: BPR"}, "[19]": {"test": "Ratio of drug level in brain to plasma in Wistar rat at 3 mg/kg, ip measured after 30 mins by LC-MS/MS analysis", "assay_type": "ADME, organism-based", "settings": "read-out: BPR"}, "[20]": {"test": "Ratio of drug level in brain to plasma in Wistar rat at 3 mg/kg, ip measured after 60 mins by LC-MS/MS analysis", "assay_type": "ADME, organism-based", "settings": "read-out: BPR"}, "[21]": {"test": "Toxicity in ip dosed Sprague-Dawley rat assessed as sedation pretreated for 60 mins followed by PCP addition measured for 30 mins starting 15 min after rat reintroduction to auto-tracks", "assay_type": "organism-based", "settings": "in vivo"}, "Rattus norvegicus [22]": {"tested_on": "Rattus norvegicus", "test": "Antipsychotic activity in Sprague-Dawley rat assessed as reduction in PCP-induced hyper-locomotion at 1 to 3 mg/kg, ip pretreated for 60 mins followed by PCP addition measured for 30 mins starting 15 min after rat reintroduction to auto-tracks", "assay_type": "functional, organism-based"}, "[23]": {"biological_target": "T2, 5-hydroxytryptamine receptor 1A", "test": "biochemical", "description": "Displacement of [3H]-8-OH-DPAT from human 5-HT1AR expressed in HEK293 cell membranes after 1 hr by microbeta counting method"}, "[24]": {"biological_target": "T4, 5-hydroxytryptamine receptor 7", "test": "biochemical", "description": "Displacement of [3H]-5-CT from human 5-HT7R expressed in HEK293 cell membranes after 1 hr at 37 degC by microbeta counting method"}, "Rattus norvegicus [25]": {"tested_on": "Rattus norvegicus", "test": "Effect on failure incidence during conditioned avoidance response test in Sprague-Dawley rat at 6 mg/kg, ip administered 60 mins prior to testing", "assay_type": "ADME, organism-based", "settings": "in vivo, 1 h"}, "Rattus norvegicus [26]": {"tested_on": "Rattus norvegicus", "test": "Reversal of ketamine-induced working social withdrawal in Sprague-Dawley rat at 1 mg/kg, ip pretreated for 60 mins followed by ketamine administration", "assay_type": "functional, organism-based"}, "Rattus norvegicus [27]": {"species": "Rattus norvegicus", "test": "animal or person", "settings": "Sprague-Dawley, ip, read-out: MED", "description": "Antipsychotic activity in ip dosed Sprague-Dawley rat assessed as reduction in PCP-induced hyper-locomotion pretreated for 60 mins followed by PCP addition measured for 30 mins starting 15 min after rat reintroduction to auto-tracks"}, "Rattus norvegicus [28]": {"species": "Rattus norvegicus", "test": "animal or person", "settings": "Sprague-Dawley, ip, read-out: MED", "remark": "listed apart in the source", "description": "Reversal of PCP-induced cognitive impairment in ip dosed Sprague-Dawley rat assessed as reduction in time spent exploring novel object over familiar object pretreated for 60 mins followed by PCP addition by novel object recognition assay"}, "Rattus norvegicus [29]": {"species": "Rattus norvegicus", "test": "animal or person", "settings": "Sprague-Dawley, ip, read-out: MED", "remark": "listed apart in the source", "description": "Antipsychotic activity in ip dosed Sprague-Dawley rat assessed as suppression of avoidance behavior by avoiding foot shock administered 60 mins prior to test by conditioned avoidance response test"}, "[30]": {"biological_target": "5-hydroxytryptamine receptor 1D (Rattus norvegicus) (UniProt P28565)", "sequence (P28565 whole entry)": "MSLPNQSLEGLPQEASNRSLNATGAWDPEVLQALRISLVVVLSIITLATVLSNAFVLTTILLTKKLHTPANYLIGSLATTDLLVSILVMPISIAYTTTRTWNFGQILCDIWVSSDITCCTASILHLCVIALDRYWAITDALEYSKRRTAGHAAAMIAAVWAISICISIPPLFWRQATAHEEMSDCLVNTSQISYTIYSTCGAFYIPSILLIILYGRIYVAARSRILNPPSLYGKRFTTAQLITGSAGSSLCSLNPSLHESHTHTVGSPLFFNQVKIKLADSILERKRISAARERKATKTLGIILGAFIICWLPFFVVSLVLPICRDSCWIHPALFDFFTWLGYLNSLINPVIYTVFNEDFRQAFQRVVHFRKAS", "test": "Antagonist activity at rat 5-HT1DR expressed in CHO cells assessed as inhibition of serotonin-induced response by cellular dielectric spectroscopy", "assay_type": "functional, cell-based"}, "[31]": {"biological_target": "5-hydroxytryptamine receptor 1B (Cricetulus griseus) (UniProt P46636)", "sequence (P46636 whole entry)": "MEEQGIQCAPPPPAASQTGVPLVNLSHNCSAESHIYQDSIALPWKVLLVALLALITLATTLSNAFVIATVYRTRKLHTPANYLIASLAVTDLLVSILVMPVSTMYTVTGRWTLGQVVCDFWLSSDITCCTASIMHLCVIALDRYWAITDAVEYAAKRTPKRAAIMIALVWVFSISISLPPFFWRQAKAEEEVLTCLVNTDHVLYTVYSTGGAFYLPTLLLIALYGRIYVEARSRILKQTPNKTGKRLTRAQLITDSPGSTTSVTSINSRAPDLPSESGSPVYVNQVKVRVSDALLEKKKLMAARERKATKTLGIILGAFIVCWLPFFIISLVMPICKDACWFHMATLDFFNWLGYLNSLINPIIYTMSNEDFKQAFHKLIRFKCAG", "test": "Antagonist activity at 5-HT1BR in CHO cells assessed as inhibition of serotonin-induced response", "assay_type": "functional, cell-based"}, "Rattus norvegicus [32]": {"tested_on": "Rattus norvegicus", "test": "Effect on failure incidence during conditioned avoidance response test in Sprague-Dawley rat at 0.3 mg/kg, ip administered 60 mins prior to testing", "assay_type": "ADME, organism-based", "settings": "in vivo, 1 h"}, "Rattus norvegicus [33]": {"species": "Rattus norvegicus", "test": "animal or person", "settings": "Sprague-Dawley, ip, read-out: MED", "remark": "listed apart in the source", "description": "Reversal of ketamine-induced working social withdrawal in ip dosed Sprague-Dawley rat pretreated for 60 mins followed by ketamine administration"}},
  "note": "Activity calls are given as the source filed them. The calls are words filed in the database; no cut-off is given here.",
  "data": [
    {"smiles": "O=S(=O)(c1cncc2ccccc12)N1CCC[C@@H]1CCN1CCN(c2cccc3sccc23)CC1", "values": [
      {"measurement": "Ki", "setting": "[1]", "value": 26, "unit": "nM"},
      {"measurement": "EC50", "setting": "[2]", "value": 11, "unit": "nM"},
      {"measurement": "Activity", "setting": "[3]", "value": 36, "unit": "%"},
      {"measurement": "inhibition", "setting": "[4]", "value": 100, "unit": "%"},
      {"measurement": "Kb", "setting": "[5]", "value": 9.5, "unit": "nM"},
      {"measurement": "inhibition", "setting": "[6]", "value": 73, "unit": "%"},
      {"measurement": "Kb", "setting": "[7]", "value": 0.47, "unit": "nM"},
      {"measurement": "inhibition", "setting": "[8]", "value": 100, "unit": "%"},
      {"measurement": "Kb", "setting": "[9]", "value": 0.74, "unit": "nM"},
      {"measurement": "inhibition", "setting": "[10]", "value": 100, "unit": "%"},
      {"measurement": "inhibition", "setting": "[11]", "value": 78, "unit": "%"},
      {"measurement": "concentration at 0.25 h", "setting": "[12]", "value": 0.564, "unit": "µM"},
      {"measurement": "concentration at 0.5 h", "setting": "[13]", "value": 0.518, "unit": "µM"},
      {"measurement": "concentration at 1 h", "setting": "[14]", "value": 0.0967, "unit": "µM"},
      {"measurement": "concentration at 0.25 h", "setting": "[15]", "value": 0.266, "unit": "µM"},
      {"measurement": "concentration at 0.5 h", "setting": "[16]", "value": 0.242, "unit": "µM"},
      {"measurement": "concentration at 1 h", "setting": "[17]", "value": 0.114, "unit": "µM"},
      {"measurement": "Kp at 0.25 h", "setting": "[18]", "value": 0.47},
      {"measurement": "Kp at 0.5 h", "setting": "[19]", "value": 0.48},
      {"measurement": "Kp at 1 h", "setting": "[20]", "value": 1.24},
      {"measurement": "MTD at 0.5 h", "setting": "[21]", "value": 3, "unit": "mg/kg"},
      {"measurement": "Activity", "setting": "Rattus norvegicus [22]", "value": "inactive"},
      {"measurement": "Ki", "setting": "[23]", "value": 24, "unit": "nM"},
      {"measurement": "Ki", "setting": "[24]", "value": 4, "unit": "nM"}
    ]},
    {"smiles": "CN1CCN(C2=Nc3cc(Cl)ccc3Nc3ccccc32)CC1", "note": "[CLOZAPINE]", "values": [
      {"measurement": "MTD at 0.5 h", "setting": "[21]", "value": 3, "unit": "mg/kg"},
      {"measurement": "Activity", "setting": "Rattus norvegicus [25]", "value": "Non-Toxic"},
      {"measurement": "Activity", "setting": "Rattus norvegicus [26]", "value": "inactive"},
      {"measurement": "minimal effective dose", "setting": "Rattus norvegicus [27]", "value": 1, "unit": "mg/kg"},
      {"measurement": "minimal effective dose", "setting": "Rattus norvegicus [28]", "value": 1, "unit": "mg/kg"},
      {"measurement": "minimal effective dose", "setting": "Rattus norvegicus [29]", "value": 1, "unit": "mg/kg"}
    ]},
    {"smiles": "CSc1ccc2c(c1)C(N1CCN(C)CC1)Cc1ccccc1S2", "note": "(stereo not given)", "values": [
      {"measurement": "Kb", "setting": "[30]", "value": 14, "unit": "nM"}
    ]},
    {"smiles": "COc1ccc(NC(=O)c2ccc(-c3ccc(-c4noc(C)n4)cc3C)cc2)cc1N1CCN(C)CC1", "values": [
      {"measurement": "Kb", "setting": "[31]", "value": 0.065, "unit": "nM"}
    ]},
    {"smiles": "Cc1nc2n(c(=O)c1CCN1CCC(c3noc4cc(F)ccc34)CC1)CCCC2", "note": "[RISPERIDONE]", "values": [
      {"measurement": "Activity", "setting": "Rattus norvegicus [32]", "value": "Non-Toxic"},
      {"measurement": "minimal effective dose", "setting": "Rattus norvegicus [29]", "value": 0.1, "unit": "mg/kg"},
      {"measurement": "minimal effective dose", "setting": "Rattus norvegicus [33]", "value": 0.1, "unit": "mg/kg"}
    ]}
  ]
}
